{"source": "patent US20240209445A1", "about": "“A CONTINUOUS METRIC TO MEASURE ENDOTYPE AND CORTICOSTEROID INTERACTION IN SEPTIC SHOCK” (CHILDREN'S HOSPITAL MEDICAL CENTER, priority 2021, published 2024)", "test": "Validation in adult cohort of the VANISH trial randomized to hydrocortisone or placebo (n=97)", "type": "in vivo, human", "details": "adult VANISH subset; controlled for illness severity using the APACHE score; lower Z values", "description": "The model was also tested using a publicly available transcriptomic data set from the Vasopressin vs. Norepinephrine as Initial Therapy for Septic Shock (VANISH) trial (9, 23). The VANISH trial compared the efficacy of vasopressin to norepinephrine as initial vasopressor therapy for septic shock among adults. Patients who reached a prespecified dose of either vasopressor were further randomized to receive hydrocortisone or placebo. Details of the procedures for assigning the cohort randomized to hydrocortisone or placebo to pediatric endotypes A or B were previously described (10, 15).\nThe findings above were further validated using a subset of adult subjects from the VANISH trial who were randomized to placebo or hydrocortisone, and for whom there existed publicly available transcriptomic data (n=97). […] The model supports that separation between groups treated with hydrocortisone and those treated with placebo occurs as the Z value decreases."}
{"smiles": "C[C@]12CCC(=O)C=C1CC[C@@H]1[C@@H]2[C@@H](O)C[C@@]2(C)[C@H]1CC[C@]2(O)C(=O)CO", "note": "[hydrocortisone]", "values": [{"measurement": "Odds of death at 28 days by hydrocortisone exposure and Z value", "result": "no hydrocortisone exposure and lower Z values tended to have lower odds of death at 28 days"}]}
